Measured values taken from ChEMBL document CHEMBL5241074, “Dual-target compounds for Alzheimer's disease: Natural and synthetic AChE and BACE-1 dual-inhibitors and their structure-activity relationship (SAR)” (Eur J Med Chem, 2021).

Assays:
Acetylcholinesterase [1] = target: T1, Acetylcholinesterase (Homo sapiens, UniProt P22303); assay: Inhibition of AChE (unknown origin)
Beta-secretase 1 [2] = target: T2, Beta-secretase 1 (Homo sapiens, UniProt P56817); assay: Inhibition of BACE1 (unknown origin)
Beta-secretase 1 [3] = target: T2, Beta-secretase 1; assay: Inhibition of BACE1 (unknown origin) at 5 uM relative to control
Acetylcholinesterase [4] = target: T1, Acetylcholinesterase; assay: Inhibition of AChE (unknown origin) at 100 uM relative to control
Beta-secretase 1 [5] = target: T2, Beta-secretase 1; assay: Inhibition of BACE1 (unknown origin) at 100 uM relative to control
Beta-secretase 1 [6] = target: T2, Beta-secretase 1; assay: Inhibition of BACE1 (unknown origin) at 2.5 uM relative to control
Acetylcholinesterase [7] = target: Acetylcholinesterase (Electrophorus electricus, UniProt O42275); assay: Inhibition of Electrophorus electricus AchE
Acetylcholinesterase [8] = target: T1, Acetylcholinesterase; assay: Inhibition of human recombinant AchE
Beta-secretase 1 [9] = target: T2, Beta-secretase 1; assay: Inhibition of human recombinant BACE1

T2 sequence (P56817 whole entry): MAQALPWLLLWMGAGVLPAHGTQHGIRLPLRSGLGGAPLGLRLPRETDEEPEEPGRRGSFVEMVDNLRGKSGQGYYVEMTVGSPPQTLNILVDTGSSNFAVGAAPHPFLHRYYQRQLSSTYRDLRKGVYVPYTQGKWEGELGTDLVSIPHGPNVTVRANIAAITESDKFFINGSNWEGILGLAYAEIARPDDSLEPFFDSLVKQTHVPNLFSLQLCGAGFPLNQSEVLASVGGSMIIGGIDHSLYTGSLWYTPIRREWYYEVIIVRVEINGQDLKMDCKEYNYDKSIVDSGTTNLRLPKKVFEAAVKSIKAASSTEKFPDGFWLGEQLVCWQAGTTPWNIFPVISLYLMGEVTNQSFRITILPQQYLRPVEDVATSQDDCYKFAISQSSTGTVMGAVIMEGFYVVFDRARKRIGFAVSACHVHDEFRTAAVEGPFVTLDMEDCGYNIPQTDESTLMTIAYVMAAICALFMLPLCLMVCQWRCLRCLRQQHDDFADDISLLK
T1 sequence (P22303 whole entry): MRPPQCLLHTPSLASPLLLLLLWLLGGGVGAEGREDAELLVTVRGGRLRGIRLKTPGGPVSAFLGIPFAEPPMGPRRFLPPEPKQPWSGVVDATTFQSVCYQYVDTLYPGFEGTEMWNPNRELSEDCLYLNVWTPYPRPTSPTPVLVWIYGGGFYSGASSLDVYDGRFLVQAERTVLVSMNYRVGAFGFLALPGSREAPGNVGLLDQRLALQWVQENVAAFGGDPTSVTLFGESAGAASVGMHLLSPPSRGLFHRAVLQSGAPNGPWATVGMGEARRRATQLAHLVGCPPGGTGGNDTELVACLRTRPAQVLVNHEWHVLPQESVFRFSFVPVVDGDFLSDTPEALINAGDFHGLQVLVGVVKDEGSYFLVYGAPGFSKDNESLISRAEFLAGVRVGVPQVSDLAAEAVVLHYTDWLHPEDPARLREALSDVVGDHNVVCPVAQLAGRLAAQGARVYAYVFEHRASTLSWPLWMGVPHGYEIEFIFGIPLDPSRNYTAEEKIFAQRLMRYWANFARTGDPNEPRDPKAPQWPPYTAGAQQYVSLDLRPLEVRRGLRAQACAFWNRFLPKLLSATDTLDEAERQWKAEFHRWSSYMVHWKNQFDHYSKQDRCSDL
Chain of Acetylcholinesterase (Electrophorus electricus, UniProt O42275) (O42275 whole entry): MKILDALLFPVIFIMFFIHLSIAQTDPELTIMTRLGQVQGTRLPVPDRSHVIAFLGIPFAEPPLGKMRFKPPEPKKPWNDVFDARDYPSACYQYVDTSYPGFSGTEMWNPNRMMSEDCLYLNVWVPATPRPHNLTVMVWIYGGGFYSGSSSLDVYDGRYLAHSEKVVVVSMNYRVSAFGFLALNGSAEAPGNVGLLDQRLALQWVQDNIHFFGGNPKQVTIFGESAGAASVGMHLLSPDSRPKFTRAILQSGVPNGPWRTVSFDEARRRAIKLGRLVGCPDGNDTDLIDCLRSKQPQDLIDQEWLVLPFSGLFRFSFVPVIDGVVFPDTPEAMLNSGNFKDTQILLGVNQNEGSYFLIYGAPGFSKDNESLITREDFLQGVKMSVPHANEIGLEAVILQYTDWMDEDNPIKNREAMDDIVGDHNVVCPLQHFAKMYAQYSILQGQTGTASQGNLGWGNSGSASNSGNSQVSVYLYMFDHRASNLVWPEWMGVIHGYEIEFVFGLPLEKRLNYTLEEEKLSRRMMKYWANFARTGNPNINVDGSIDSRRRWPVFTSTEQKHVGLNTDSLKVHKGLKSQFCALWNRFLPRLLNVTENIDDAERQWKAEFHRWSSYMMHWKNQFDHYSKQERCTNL

SMILES | IC50 (Acetylcholinesterase [1]) [nM] | IC50 (Beta-secretase 1 [2]) [nM] | further results
Oc1cc(O)cc(Oc2c(O)cc(O)c3c2Oc2c(cc(O)c(-c4c(O)cc5c(c4O)Oc4c(Oc6cc(O)cc(O)c6)c(O)cc(O)c4O5)c2O)O3)c1 | 4590 | – | –
COc1cc(/C=C/c2nnc(-c3ccc(F)cc3)o2)ccc1O | 0.284 | 0.479 | –
COc1cc2c(cc1OC)CC(CC1CCN(CCCNc3c4c(nc5cc(Cl)ccc35)CC3C=C(C)CC4C3)CC1)C2 (single isomer, unassigned; (-)) [listing 1 of 2 here] | – | – | inhibition (Beta-secretase 1 [3]): 30.8%
COc1ccc(/C=C/C(=O)c2cc(I)c(OC)cc2O)cc1 | 11 | 70.8 | –
COc1cc2c(cc1OC)CC(CC1CCN(CCCNc3c4c(nc5cc(Cl)ccc35)CC3C=C(C)CC4C3)CC1)C2 (racemic) [listing 1 of 2 here] | 5.37 | – | –
CCC1=CC2Cc3nc4cc(Cl)ccc4c(NCCCN4CCC(CC5Cc6cc(OC)c(OC)cc6C5)CC4)c3C(C1)C2 (racemic) [listing 1 of 2 here] | 6.32 | – | –
COc1cc2c(cc1OC)CC(CC1CCN(CCCNc3c4c(nc5cc(Cl)ccc35)CC3C=C(C)CC4C3)CC1)C2 (racemic) [listing 2 of 2 here] | – | – | inhibition (Beta-secretase 1 [3]): 29.1%
COc1cc2c(cc1OC)CC(CC1CCN(CCCNc3c4c(nc5cc(Cl)ccc35)CC3C=C(C)CC4C3)CC1)C2 (single isomer, unassigned; (-)) [listing 2 of 2 here] | 2.61 | – | –
COc1cc(O)cc(-c2cc3ccc(O)c(C/C=C(\C)CCC=C(C)C)c3o2)c1CC=C(C)C | > 200000 | – | –
COc1ccc(NCC2CCN(Cc3ccccc3)CC2)cc1 | 165 | 253 | –
CC(C)=CCc1c(O)ccc(C(=O)/C=C/c2ccc(O)cc2)c1O | – | – | inhibition (Acetylcholinesterase [4]): 83%; inhibition (Beta-secretase 1 [5]): 34%
CC(C)=CCc1cc2c(cc1O)O[C@H](c1ccc(O)cc1)CC2=O | – | – | inhibition (Acetylcholinesterase [4]): 34%; inhibition (Beta-secretase 1 [5]): 14%
O=C(CCc1ccc2nc(-c3ccccc3)c3c(c2c1)OCCC3)NCCCCCCCNc1c2c(nc3cc(Cl)ccc13)CCCC2 | 11.4 | – | inhibition (Beta-secretase 1 [6]): 34.4%
O=C(NCCCCCCCNc1c2c(nc3cc(Cl)ccc13)CCCC2)c1ccc2nc(-c3ccc(Cl)cc3)c3c(c2c1)OCCC3 | – | – | inhibition (Beta-secretase 1 [6]): 14.5%
COc1cc(/C=C/c2nnc(-c3ccc(C(F)(F)F)cc3)o2)ccc1O | 0.068 | 0.255 | –
O=C(/C=C/c1ccc(O)c(O)c1)O[C@@H]1[C@H](O)C[C@@](O)(C(=O)O)C[C@H]1OC(=O)/C=C/c1ccc(O)c(O)c1 | 2140 | 3310 | –
CC(C)=CCC/C(C)=C/Cc1c(O)ccc2cc(-c3cc(O)cc(O)c3CC=C(C)C)oc12 [MULBERROFURAN D] | 23000 | 3740 | –
O=C1Cc2cc(N3C(=O)c4ccccc4C3=O)ccc2CN1C(=O)c1ccccc1 | 65.6 | 5.87 | –
COc1cc(O)c(C(=O)/C=C/c2ccc(O)cc2)cc1CC=C(C)C | – | – | inhibition (Acetylcholinesterase [4]): 46%; inhibition (Beta-secretase 1 [5]): 68%
Cc1cc2c(c(C)c1CCO[C@@H]1O[C@H](CO)[C@@H](O)[C@H](O)[C@H]1O)C(=O)C(C)(C)[C@H]2O | 27400 | 10700 | –
COc1cc(/C=C/c2nnc(-c3ccc(OC(F)(F)F)cc3)o2)ccc1O | 0.092 | 0.211 | –
O=C(CCc1ccc2nc(-c3ccccc3)c3c(c2c1)OCCC3)NCCCCCCNc1c2c(nc3cc(Cl)ccc13)CCCC2 | – | – | inhibition (Beta-secretase 1 [6]): 19.6%

SMILES | IC50 (Acetylcholinesterase [1]) [nM] | IC50 (Beta-secretase 1 [2]) [nM] | further results
CCC1=CC2Cc3nc4cc(Cl)ccc4c(NCCN4CCC(CC5Cc6cc(OC)c(OC)cc6C5)CC4)c3C(C1)C2 (single isomer, unassigned; (-)) | 28.6 | – | inhibition (Beta-secretase 1 [3]): 12.5%
CC12CC(c3c(O)cc(-c4cc5ccc(O)cc5o4)cc3O)CC3c4ccc(O)cc4OC31C2 (configuration not stated) | > 200000 | 1040 | –
COc1ccccc1C(=O)N1Cc2ccc(N3C(=O)c4ccccc4C3=O)cc2CC1=O | 81.7 | 2.96 | –
C[C@@H]1O[C@@H](OC[C@H]2O[C@@H](Oc3c(-c4ccc(O)c(O)c4)oc4cc(O)cc(O)c4c3=O)[C@H](O)[C@@H](O)[C@@H]2O)[C@H](O)[C@H](O)[C@H]1O [RUTIN] | 113000 | 3.8 | –
C[C@@H]1O[C@@H](O[C@@H]2[C@@H](O)[C@H](OCCc3ccc(O)c(O)c3)O[C@H](CO)[C@H]2OC(=O)/C=C/c2ccc(O)c(O)c2)[C@H](O)[C@H](O)[C@H]1O [ACETOSIDE] | – | 6.3 | –
COc1ccc(NCC2CCN(Cc3ccccc3)CC2)cc1OC | 145 | 243 | –
COc1cc(/C=C/c2nnc(-c3ccc(Cl)cc3)o2)ccc1O | 0.334 | 0.628 | –
COc1ccc(NC(=O)C2CCN(C(=O)c3ccccc3)CC2)cc1OC | 4.11 | 18.3 | –
CCC1=CC2Cc3nc4cc(Cl)ccc4c(NCCCN4CCC(CC5Cc6cc(OC)c(OC)cc6C5)CC4)c3C(C1)C2 (stereo in doubt; (-)-36b) [listing 1 of 2 here] | 3.85 | – | –
Cc1cc2c(c(C)c1CCO[C@@H]1O[C@H](CO)[C@@H](O)[C@H](O)[C@H]1O)C(=O)[C@H](C)C2 | 2550 | 18000 | –
O=c1c(O)c(-c2ccc(F)cc2)oc2cc(F)c(I)cc12 | 3.23 | 32.2 | –
C/C=C1/C(O[C@@H]2O[C@H](CO)[C@@H](O)[C@H](O)[C@H]2O)OC=C(C(=O)OC)C1CC(=O)OCCc1ccc(O)c(O)c1 (some centres not stated) | – | 2760 | –
COc1ccc(/C=C/C(=O)c2cc(I)c(Cl)cc2O)cc1 | 11.7 | 13.8 | –
COc1ccc(-c2oc3cc(OC)c(I)cc3c(=O)c2O)cc1 | 7.19 | 22.4 | –
CC(C)=CCCC1(C)C=Cc2c(ccc3cc(-c4cc(O)cc(O)c4CC=C(C)C)oc23)O1 (configuration not stated) | 4610 | – | –
COc1cc(/C=C/c2nnc(-c3ccc(F)cc3F)o2)ccc1O | 0.19 | 0.624 | –
O=c1c(O)c(-c2ccc(Cl)cc2)oc2cc(F)c(I)cc12 | 3.45 | 16.7 | –
CCCCCCCCCCCC1=CC(=O)C=CC1=O | – | – | IC50 (Acetylcholinesterase [7]): 2500 nM; IC50 (Acetylcholinesterase [8]): 7910 nM; IC50 (Beta-secretase 1 [9]): 2110 nM
COc1cc(/C=C/c2nnc(-c3ccc(Cl)cc3Cl)o2)ccc1O | 0.22 | 0.864 | –
C/C(=C\C1=CCN(C(=O)CCc2ccccc2)C(=O)C1)N1C(=O)c2ccccc2C1=O | 55.3 | 2.07 | –
O=c1c(O)c(-c2ccc(O)c(O)c2)oc2cc(O)cc(O)c12 [QUERCETIN] | 2910 | – | –
O=c1c(/C=N/Nc2ccc(C(F)(F)F)cc2)coc2c1ccc1oc(-c3ccc(Cl)cc3)cc12 | 5400 | 13600 | –

SMILES | IC50 (Acetylcholinesterase [1]) [nM] | IC50 (Beta-secretase 1 [2]) [nM] | further results
CC(C)=CCC/C(C)=C/CC/C(C)=C\Cc1c(O)cc(O)c(CC=C(C)C)c1-c1cc2ccc(O)cc2o1 | 13900 | 2030 | –
Cc1cccc(C(=O)N2Cc3ccc(N4C(=O)c5ccccc5C4=O)cc3CC2=O)c1 | 25.5 | 4.45 | –
OCCc1ccc(O)c(O)c1 [HYDROXYTYROSOL] | – | 35 | –
COc1ccc(-c2cc3cc4c(=O)c(/C=N/Nc5ccc(C(F)(F)F)cc5)coc4cc3o2)cc1 | 5400 | 25300 | –
Cc1cc2c(c(C)c1CCO[C@@H]1O[C@H](CO)[C@@H](O)[C@H](O)[C@H]1O)C(=O)[C@H](C)[C@H]2O | 3770 | 9740 | –
COc1cc2c(cc1OC)CC(CC1CCN(CCNc3c4c(nc5cc(Cl)ccc35)CC3C=C(C)CC4C3)CC1)C2 (configuration not stated) | 13 | – | inhibition (Beta-secretase 1 [3]): 24.6%
CCC1=CC2Cc3nc4cc(Cl)ccc4c(NCCCN4CCC(CC5Cc6cc(OC)c(OC)cc6C5)CC4)c3C(C1)C2 (stereo in doubt; (-)-36b) [listing 2 of 2 here] | – | – | inhibition (Beta-secretase 1 [3]): 14.9%
Cc1cc2c(c(C)c1CCO[C@@H]1O[C@H](CO)[C@@H](O)[C@H](O)[C@H]1O)C(=O)[C@@H](C)[C@H]2O | 9170 | – | –
COc1ccc(-c2oc3cc(Br)c(I)cc3c(=O)c2O)cc1 | – | 15.7 | –
O=c1c(/C=N/Nc2ccc(C(F)(F)F)cc2)coc2c1ccc1oc(-c3cccc(F)c3)cc12 | 10400 | 15800 | –
O=c1c(/C=N/Nc2ccc(C(F)(F)F)cc2)coc2cc3oc(-c4cccc(F)c4)cc3cc12 | 7600 | 17300 | –
CCC1=CC2Cc3nc4cc(Cl)ccc4c(NCCCN4CCC(CC5Cc6cc(OC)c(OC)cc6C5)CC4)c3C(C1)C2 (racemic) [listing 2 of 2 here] | – | – | inhibition (Beta-secretase 1 [3]): 18%
O=c1c(/C=N/Nc2ccc(C(F)(F)F)cc2)coc2cc3oc(-c4cccc(Cl)c4)cc3cc12 | 18300 | 32800 | –
COc1ccccc1NC(=O)C1CCN(C(=O)c2ccccc2)CC1 | 8.46 | 18.5 | –
COc1cc2c(cc1CC=C(C)C)C(=O)CC(c1ccc(O)cc1)O2 (configuration not stated) | – | – | inhibition (Acetylcholinesterase [4]): 80%; inhibition (Beta-secretase 1 [5]): 20%
O=C(NCCCCCCCCNc1c2c(nc3cc(Cl)ccc13)CCCC2)c1ccc2nc(-c3ccc(Cl)cc3)c3c(c2c1)OCCC3 | – | – | inhibition (Beta-secretase 1 [6]): 18.5%
COc1ccc(C(=O)N2Cc3ccc(N4C(=O)c5ccccc5C4=O)cc3CC2=O)cc1 | 81.8 | 1.69 | –
O=C(/C=C/c1ccc(F)cc1)c1cc(I)c(Br)cc1O | 11 | 4.7 | –
O=C(CCc1ccc2nc(-c3ccccc3)c3c(c2c1)OCCC3)NCCCCCCCCNc1c2c(nc3cc(Cl)ccc13)CCCC2 | – | – | inhibition (Beta-secretase 1 [6]): 77.8%
COc1ccccc1NCC1CCN(Cc2ccccc2)CC1 | 157 | 277 | –
COc1cc(O)c(C(=O)/C=C/c2ccc(F)cc2)cc1I | 9.38 | 25.1 | –
COc1ccc(NC(=O)C2CCN(C(=O)c3ccccc3)CC2)cc1 | 9.78 | 19.1 | –
